ChEMBL document CHEMBL4049443, “Discovery of 2-[[2-Ethyl-6-[4-[2-(3-hydroxyazetidin-1-yl)-2-oxoethyl]piperazin-1-yl]-8-methylimidazo[1,2-a]pyridin-3-yl]methylamino]-4-(4-fluorophenyl)thiazole-5-carbonitrile (GLPG1690), a First-in-Class Autotaxin Inhibitor Undergoing Clinical Evaluation for the Treatment of Idiopathic Pulmonary …” (J Med Chem, 2017)

Columns and labels:
Autotaxin = Autotaxin (Homo sapiens, UniProt Q13822); test: Inhibition of human ATX using LPC (16:0) as substrate after 30 mins by horseradish peroxidase/choline oxidase coupled enzyme based spectrophotometric analysis
Cytochrome P450 3A4 = Cytochrome P450 3A4 (Homo sapiens, UniProt P08684); test: Time-dependent inhibition of human liver microsomes CYP3A4; assay type: ADME
Chain of Cytochrome P450 3A4 (P08684 whole entry): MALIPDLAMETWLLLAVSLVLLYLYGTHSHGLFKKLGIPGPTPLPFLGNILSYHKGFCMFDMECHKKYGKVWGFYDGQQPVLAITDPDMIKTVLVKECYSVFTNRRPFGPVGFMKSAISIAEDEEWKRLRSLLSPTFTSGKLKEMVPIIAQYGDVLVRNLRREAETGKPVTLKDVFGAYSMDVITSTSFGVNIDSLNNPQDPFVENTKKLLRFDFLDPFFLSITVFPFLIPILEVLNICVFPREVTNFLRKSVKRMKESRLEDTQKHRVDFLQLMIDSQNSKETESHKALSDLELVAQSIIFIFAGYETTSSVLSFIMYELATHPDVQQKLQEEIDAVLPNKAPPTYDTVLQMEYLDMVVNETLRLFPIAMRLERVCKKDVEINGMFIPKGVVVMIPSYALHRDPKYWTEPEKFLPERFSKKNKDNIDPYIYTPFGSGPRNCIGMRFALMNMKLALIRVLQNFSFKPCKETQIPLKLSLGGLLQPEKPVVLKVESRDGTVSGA

Structure (SMILES): CCc1nc2ccc(N3CCN(CC(=O)N4CC(O)C4)CC3)cn2c1N(C)c1nc(-c2ccc(F)cc2)cs1
- IC50 (Autotaxin): 274 nM
- TDI (Cytochrome P450 3A4): Active
